pIC50: −log10 of the molar value. Read-outs that look alike come from different tables or passages of the source.
What was measured:
[1] = test system: Human Keratinocytes (HaCaT); assay: DNA fragmentation assay in HaCaT; assay type: cell-based
Procedure: Cells were lysed and fragmented DNA was precipitated using PEG/NaCl solution. The fragmented DNA was incubated with 0.2 μg/ml of Hoechst 33258 dye and fluorescence was read at 360 ex/460 em. End point: Percentage induction of DNA fragmentation with respect to untreated Positive control. Anthralin. IS 181 led to induction of DNA fragmentation in HaCaT cells at all the concentrations tested except at 100 μg/ml. […] The overall effect of IS 181 on induction of DNA fragmentation with respect to untreated in HaCaT cells ranged from −18.8% to 83.3%. (FIG. 8 and Table-6).

[2] = test system: Caspase-3 enzyme; assay: Caspase-3 assay; assay type: cell-based, Human; conditions: HaCaT, 0.1 μM
Procedure: Cell lines: Human Keratinocytes (HaCaT); Test Item (TI): IS 181; Treatment regimen: Multiple additions (2)—48 hours; Concentration range: 100 μg/ml to 5000 μg/ml (Duplicate wells); Sera Condition: Medium containing 1% FBS. […] Cells were lysed and protein was estimated. The above lysates were processed further for Caspase-3 enzyme activity assay using colorimetric based method. Percentage induction of Caspase-3 enzyme activation with respect to untreated; Positive control: Anthralin. IS 181 led to induction of Caspase-3 enzyme activation in HaCaT cells at all the concentrations tested except at 100 μg/ml. […] (FIGS. 7A-7B)

[3] = test system: Human endothelial cells (EA.hy 926); assay: DNA fragmentation in endothelial cells; assay type: cell-based
Procedure: Cell lines: Human endothelial cells (EA.Hy 926); test item: IS 181; treatment regimen: multiple additions (2)—48 hours; concentration range: 100 μg/ml to 5000 μg/ml (Duplicate wells); sera condition: medium containing 1% FBS. […] Cells were lysed and fragmented DNA was precipitated using PEG/NaCl solution. The fragmented DNA was incubated with 0.2 μg/ml of Hoechst 33258 dye and fluorescence was read at 360 ex/460 em. End point: Percentage induction of DNA fragmentation with respect to untreated. Positive control: anthralin. IS 181 led to induction of DNA fragmentation in Ea.hy.926 cells at all the concentrations tested. […] The overall effect of IS 181 on induction of DNA fragmentation with respect to untreated in Ea.hy.926 cells ranged from 15.09% to 64.15% (FIGS. 10A-10B and Table-10).

[4] = In vitro combination Anthralin and IS 181 (MTT); assay type: cell-based, Human; conditions: human, HaCaT keratinocytes, read-out: percent inhibition of cell viability/cytotoxicity
Procedure: (§1) Percentage cytotoxicity was determined using MTT assay.

[5] = test system: Human Keratinocytes (HaCaT); assay: In vitro combination Anthralin and IS 181 (MTT); assay type: cell-based; conditions: Homo sapiens, 72 h, read-out: IC 50 value of Anthralin
Procedure: as §1

[6] = test system: Human endothelial cells (EA.hy 926); assay: Inhibition of FBS stimulated endothelial cell proliferation (MTT); assay type: cell-based
Procedure: Cell line: Human endothelial cells (EA.hy 926); test item: IS 181: treatment regimen: multiple additions (3)-72 hours; concentration range: 1 6 g/ml to 5000 6 g/ml (triplicate wells); sera condition: medium containing 10% FBS. […] The cells were then subjected to complete serum starvation. The cells were retreated with 10% FBS to stimulate cellular proliferation. […] Inhibition of FBS stimulated cell proliferation was measured using MTT assay. End point: percentage inhibition of FBS stimulated cell proliferation. Positive controls: anthralin; paclitaxel.

O=C1c2c(O)cccc2Cc2cccc(O)c21 [Anthralin, reference compound]
% induction of DNA fragmentation ([1]; 0.1 μM): 60.42%
% induction of DNA fragmentation ([1]; 0.5 μM): 168.75%
Percentage induction of caspase-3 enzyme activation with respect to untreated [2]: 101.85
% induction of DNA fragmentation ([3]; EA.hy926, 0.1 μM): 3.77%
% induction of DNA fragmentation ([3]; EA.hy926, 0.5 μM): 13.21%
cytotoxicity at 72 h, 0.01 µM ([4]; Anthralin 0.01 μM alone): 0.75%
cytotoxicity at 72 h, 0.05 µM ([4]; Anthralin 0.05 μM alone): -2.45%
cytotoxicity at 72 h, 0.1 µM ([4]; Anthralin 0.1 μM alone): 9.41%
cytotoxicity at 72 h, 0.5 µM ([4]; Anthralin 0.5 μM alone): 41.3%
cytotoxicity at 72 h, 1 µM ([4]; Anthralin 1 μM alone): 78.9%
cytotoxicity at 72 h, 5 µM ([4]; Anthralin 5 μM alone): 87.9%
pIC50 ([5]; IS 181 0 μg/ml): 6.25
pIC50 ([5]; with IS 181 10 μg/ml): 6.20
pIC50 ([5]; with IS 181 50 μg/ml): 6.23
pIC50 ([5]; with IS 181 100 μg/ml): 6.28
pIC50 ([5]; with IS 181 500 μg/ml): 7.01
pIC50 ([5]; with IS 181 1000 μg/ml): 7.57
pIC50 ([5]; with IS 181 2000 μg/ml): 10.00
Absorbance (Mean ± SD) at 540 nm ([6]; EA.hy926, 0.01 μM): 0.46 ± 0.025
Absorbance (Mean ± SD) at 540 nm ([6]; EA.hy926, 0.1 μM): 0.45 ± 0.018
Absorbance (Mean ± SD) at 540 nm ([6]; EA.hy926, 0.5 μM): 0.42 ± 0.013
inhibition at 0.01 µM ([6]; Homo sapiens, EA.hy 926, EA.hy926, 0.01 μM, read-out: ¾ Inhibition of FBS stimulated cell growth): 7.21%
inhibition at 0.1 µM ([6]; Homo sapiens, EA.hy 926, EA.hy926, 0.1 μM, read-out: ¾ Inhibition of FBS stimulated cell growth): 14.6%
inhibition at 0.5 µM ([6]; Homo sapiens, EA.hy 926, EA.hy926, 0.5 μM, read-out: ¾ Inhibition of FBS stimulated cell growth): 20.4%

Source: patent US10538561B2, “Peptide for treating inflammatory diseases” (priority 2015, dated 2020)
